For 28 compounds, MIC results are on record in patent publication US20200157144A1, “ANTIMICROBIAL PEPTIDOMIMETICS” (priority 2017, published 2020).

Converted amounts (≈) assume the structure as drawn. Square brackets hold non-standard residues; d marks the D form. Peptide text beside a SMILES is read from it. Bip(4'-Cl) = N[C@@H](Cc1ccc(-c2ccc(Cl)cc2)cc1)C(=O)O; Bip(4'-Me) = Cc1ccc(-c2ccc(C[C@H](N)C(=O)O)cc2)cc1; Bip = N[C@@H](Cc1ccc(-c2ccccc2)cc1)C(=O)O; dBip = N[C@H](Cc1ccc(-c2ccccc2)cc1)C(=O)O; Phe(4-Br) = N[C@@H](Cc1ccc(Br)cc1)C(=O)O; Phe(4-Cl) = N[C@@H](Cc1ccc(Cl)cc1)C(=O)O; Phe(4-I) = N[C@@H](Cc1ccc(I)cc1)C(=O)O; Phe(4-Me) = Cc1ccc(C[C@H](N)C(=O)O)cc1 Bounds are passed on as bounds.

This experiment has as its system Mupirocin-resistant MRSA ATCC-BAA-1556. Briefly: microbe, parasite or virus in culture. Type of experiment: cell-based, Staphylococcus aureus. The note with it: ATCC-BAA-1556; read-out: MIC. As to the method: The MICs of test compounds were determined using the microdilution method from the Clinical and Laboratory Standards Institute (CLSI) guidelines (Clinical and Laboratory Standards Institute. Methods for dilution antimicrobial susceptibility tests for bacteria that grow aerobically; approved standard—ninth edition. Document M07-A9. Vol. 32 No. 2. Wayne, Pa.: CLSI; 2012). Briefly, bacteria were grown fresh from frozen stock in Mueller Hinton 2 (MH2) agar at 37° C. After an overnight incubation, 5 bacteria colonies were selected to grow in cation-adjusted MH2 broth in a shaking incubator (140 RPM) at 37° C. Cells were grown to an optical density (OD600) of 0.15-0.16 determined using a spectrophotometer (Molecular Devices Spectra Max Plus), which corresponds to ˜1×10^8 CFU/mL. Test compounds were constituted into 4 mM DMSO stock solutions and then subjected to 2-fold serial dilution in a 96-well plate with concentrations ranging from 100 to 0.195 μM in duplicates. […] of microbial culture containing ˜1×10^6 CFU/mL of microbes in the respective broths was introduced into each well containing 50 μL of compound solution. After an overnight incubation at 35° C., (220 RPM), OD600 measurements were conducted using the microplate spectrophotometer. The MIC was defined as the lowest antibiotic or compound concentration (μM) required to inhibit bacteria growth.
The 11th well was used as the growth control well (medium with bacterial inoculums, no antibacterial) while the 12th well was the sterility control well (medium only).
For the compound `N=C(N)NCCCCNC(=O)[C@H](Cc1ccc(-c2ccccc2)cc1)NC(=O)[C@H](CCCNC(=N)N)NC(=O)[C@@H](N)Cc1ccc(-c2ccccc2)cc1` [Compound 1], the MIC came to 12.5 µM (≈ 9.16 µg/mL).

`N=C(N)NCCC[C@H](NC(=O)[C@H](Cc1ccc(-c2ccccc2)cc1)NC(=O)[C@H](CCCNC(=N)N)NC(=O)[C@@H](N)Cc1ccc(-c2ccccc2)cc1)C(N)=O` [Compound 3] (H-[Bip]R[Bip]R-NH2): the MIC is 12.5 µM (≈ 9.7 µg/mL).

Consider `N=C(N)NCCC[C@@H](NC(=O)[C@@H](Cc1ccc(-c2ccccc2)cc1)NC(=O)[C@@H](CCCNC(=N)N)NC(=O)[C@H](N)Cc1ccc(-c2ccccc2)cc1)C(N)=O` [Compound 4] (H-[dBip][dR][dBip][dR]-NH2), for which the MIC amounted to 12.5 µM (≈ 9.7 µg/mL).

Take `N=C(N)NCCC[C@H](NC(=O)[C@H](Cc1ccc(-c2ccccc2)cc1)NC(=O)[C@H](CCCNC(=N)N)NC(=O)[C@@H](N)Cc1ccccc1)C(N)=O` [Compound 5] (H-FR[Bip]R-NH2): the MIC is listed as >100 µM.

In the case of `N=C(N)NCCC[C@H](NC(=O)[C@H](Cc1ccccc1)NC(=O)[C@H](CCCNC(=N)N)NC(=O)[C@@H](N)Cc1ccc(-c2ccccc2)cc1)C(N)=O` [Compound 6] (H-[Bip]RFR-NH2), the MIC is given as >100 µM.

For the compound `Cc1ccc(C[C@H](N)C(=O)N[C@@H](CCCNC(=N)N)C(=O)N[C@@H](Cc2ccc(-c3ccccc3)cc2)C(=O)N[C@@H](CCCNC(=N)N)C(N)=O)cc1` [Compound 7] (H-[Phe(4-Me)]R[Bip]R-NH2), the MIC is 100 µM (≈ 71.4 µg/mL).

With `Cc1ccc(C[C@H](NC(=O)[C@H](CCCNC(=N)N)NC(=O)[C@@H](N)Cc2ccc(-c3ccccc3)cc2)C(=O)N[C@@H](CCCNC(=N)N)C(N)=O)cc1` [Compound 8] (H-[Bip]R[Phe(4-Me)]R-NH2), the MIC was >100 µM.

As for `N=C(N)NCCC[C@H](NC(=O)[C@H](Cc1ccc(-c2ccccc2)cc1)NC(=O)[C@H](CCCNC(=N)N)NC(=O)[C@@H](N)Cc1ccc(Cl)cc1)C(N)=O` [Compound 9] (H-[Phe(4-Cl)]R[Bip]R-NH2), the MIC is reported as 100 µM (≈ 73.4 µg/mL).

Turning to `N=C(N)NCCC[C@H](NC(=O)[C@H](Cc1ccc(Cl)cc1)NC(=O)[C@H](CCCNC(=N)N)NC(=O)[C@@H](N)Cc1ccc(-c2ccccc2)cc1)C(N)=O` [Compound 10] (H-[Bip]R[Phe(4-Cl)]R-NH2), the MIC was 100 µM (≈ 73.4 µg/mL).

On to `N=C(N)NCCC[C@H](NC(=O)[C@H](Cc1ccc(-c2ccccc2)cc1)NC(=O)[C@H](CCCNC(=N)N)NC(=O)[C@@H](N)Cc1ccc(Br)cc1)C(N)=O` [Compound 11] (H-[Phe(4-Br)]R[Bip]R-NH2), for which the MIC is 50 µM (≈ 38.9 µg/mL).

In the case of `N=C(N)NCCC[C@H](NC(=O)[C@H](Cc1ccc(Br)cc1)NC(=O)[C@H](CCCNC(=N)N)NC(=O)[C@@H](N)Cc1ccc(-c2ccccc2)cc1)C(N)=O` [Compound 12] (H-[Bip]R[Phe(4-Br)]R-NH2), the MIC turned out to be 100 µM (≈ 77.9 µg/mL).

On to `N=C(N)NCCC[C@H](NC(=O)[C@H](Cc1ccc(-c2ccccc2)cc1)NC(=O)[C@H](CCCNC(=N)N)NC(=O)[C@@H](N)Cc1ccc(I)cc1)C(N)=O` [Compound 13] (H-[Phe(4-I)]R[Bip]R-NH2), for which the MIC amounted to 50 µM (≈ 41.3 µg/mL).

Turning to `N=C(N)NCCC[C@H](NC(=O)[C@H](Cc1ccc(I)cc1)NC(=O)[C@H](CCCNC(=N)N)NC(=O)[C@@H](N)Cc1ccc(-c2ccccc2)cc1)C(N)=O` [Compound 14] (H-[Bip]R[Phe(4-I)]R-NH2), the MIC was found to be 100 µM (≈ 82.6 µg/mL).

On to `N=C(N)NCCC[C@H](NC(=O)[C@H](Cc1ccc(-c2ccccc2)cc1)NC(=O)[C@H](CCCNC(=N)N)NC(=O)[C@@H](N)Cc1ccc(-c2ccc(Cl)cc2)cc1)C(N)=O` [Compound 15] (H-[Bip(4'-Cl)]R[Bip]R-NH2), for which the MIC was found to be 6.25 µM (≈ 5.07 µg/mL).

As for `N=C(N)NCCC[C@H](NC(=O)[C@H](Cc1ccc(-c2ccc(Cl)cc2)cc1)NC(=O)[C@H](CCCNC(=N)N)NC(=O)[C@@H](N)Cc1ccc(-c2ccccc2)cc1)C(N)=O` [Compound 16] (H-[Bip]R[Bip(4'-Cl)]R-NH2), the MIC is reported as 6.25 µM (≈ 5.07 µg/mL).

Take `N=C(N)NCCC[C@H](NC(=O)[C@H](Cc1ccc(-c2ccccc2)cc1)NC(=O)[C@H](CCCNC(=N)N)NC(=O)[C@@H](N)Cc1ccc(-c2ccc(Cl)c(Cl)c2)cc1)C(N)=O` [Compound 17]: the MIC worked out at 6.25 µM (≈ 5.28 µg/mL).

For the compound `N=C(N)NCCC[C@H](NC(=O)[C@H](Cc1ccc(-c2ccc(Cl)c(Cl)c2)cc1)NC(=O)[C@H](CCCNC(=N)N)NC(=O)[C@@H](N)Cc1ccc(-c2ccccc2)cc1)C(N)=O` [Compound 18], the MIC turned out to be 6.25 µM (≈ 5.28 µg/mL).

As for `N=C(N)NCCC[C@H](NC(=O)[C@H](Cc1ccc(-c2ccccc2)cc1)NC(=O)[C@H](CCCNC(=N)N)NC(=O)[C@@H](N)Cc1ccc(-c2ccc(Br)cc2)cc1)C(N)=O` [Compound 19], the MIC worked out at 6.25 µM (≈ 5.34 µg/mL).

`N=C(N)NCCC[C@H](NC(=O)[C@H](Cc1ccc(-c2ccc(Br)cc2)cc1)NC(=O)[C@H](CCCNC(=N)N)NC(=O)[C@@H](N)Cc1ccc(-c2ccccc2)cc1)C(N)=O` [Compound 20]: the MIC came to 6.25 µM (≈ 5.34 µg/mL).

With `Cc1ccc(-c2ccc(C[C@H](N)C(=O)N[C@@H](CCCNC(=N)N)C(=O)N[C@@H](Cc3ccc(-c4ccccc4)cc3)C(=O)N[C@@H](CCCNC(=N)N)C(N)=O)cc2)cc1` [Compound 21] (H-[Bip(4'-Me)]R[Bip]R-NH2), the MIC was 12.5 µM (≈ 9.87 µg/mL).

With `Cc1ccc(-c2ccc(C[C@H](NC(=O)[C@H](CCCNC(=N)N)NC(=O)[C@@H](N)Cc3ccc(-c4ccccc4)cc3)C(=O)N[C@@H](CCCNC(=N)N)C(N)=O)cc2)cc1` [Compound 22] (H-[Bip]R[Bip(4'-Me)]R-NH2), the MIC was found to be 12.5 µM (≈ 9.87 µg/mL).

Take `CC(C)(C)c1ccc(-c2ccc(C[C@H](N)C(=O)N[C@@H](CCCNC(=N)N)C(=O)N[C@@H](Cc3ccc(-c4ccccc4)cc3)C(=O)N[C@@H](CCCNC(=N)N)C(N)=O)cc2)cc1` [Compound 23]: the MIC was found to be 12.5 µM (≈ 10.4 µg/mL).

As to `CC(C)(C)c1ccc(-c2ccc(C[C@H](NC(=O)[C@H](CCCNC(=N)N)NC(=O)[C@@H](N)Cc3ccc(-c4ccccc4)cc3)C(=O)N[C@@H](CCCNC(=N)N)C(N)=O)cc2)cc1` [Compound 24], the MIC is 12.5 µM (≈ 10.4 µg/mL).

For the compound `N=C(N)NCCC[C@H](NC(=O)[C@H](Cc1ccc(-c2ccccc2)cc1)NC(=O)[C@H](CCCNC(=N)N)NC(=O)[C@@H](N)Cc1ccc(-c2ccc(-c3ccccc3)cc2)cc1)C(N)=O` [Compound 25], the MIC is listed as 100 µM (≈ 85.2 µg/mL).

In the case of `N=C(N)NCCC[C@H](NC(=O)[C@H](Cc1ccc(-c2ccc(-c3ccccc3)cc2)cc1)NC(=O)[C@H](CCCNC(=N)N)NC(=O)[C@@H](N)Cc1ccc(-c2ccccc2)cc1)C(N)=O` [Compound 26], the MIC came to 25 µM (≈ 21.3 µg/mL).

Consider `N=C(N)NCCC[C@H](NC(=O)[C@H](Cc1ccc(-c2ccccc2)cc1)NC(=O)[C@H](CCCNC(=N)N)NC(=O)[C@@H](N)Cc1ccc(-c2cccc(Cl)c2)cc1)C(N)=O` [Compound 27], for which the MIC amounted to 6.25 µM (≈ 5.07 µg/mL).

Take `N=C(N)NCCC[C@H](NC(=O)[C@H](Cc1ccc(-c2cccc(Cl)c2)cc1)NC(=O)[C@H](CCCNC(=N)N)NC(=O)[C@@H](N)Cc1ccc(-c2ccccc2)cc1)C(N)=O` [Compound 28]: the MIC is on record as 6.25 µM (≈ 5.07 µg/mL).

Take `CC(C)(C)c1cc(-c2ccc(C[C@H](N)C(=O)N[C@@H](CCCNC(=N)N)C(=O)N[C@@H](Cc3ccc(-c4ccccc4)cc3)C(=O)N[C@@H](CCCNC(=N)N)C(N)=O)cc2)cc(C(C)(C)C)c1` [Compound 29]: the MIC is given as 50 µM (≈ 44.4 µg/mL).
